{"source": "patent US10894777B2", "about": "“TG2 inhibitor piperazine compounds and uses thereof” (UNIVERSITY OF OTTAWA, priority 2016, dated 2021)", "key": {"EGFR": {"test_system": "EGFR", "test": "Immunoblot of EGFR and phospho-EGFR in GBM cells", "assay_type": "cell-based, human", "procedure": "In (A) it is shown that shorter treatments with NC9 had no effect on EGF-stimulated EGFR phosphorylation in U87 cells. U87 cells were treated with 10 μM NC9 or DMSO control for 24 h followed by 10 min of 100 ng/mL EGF treatment. At the end of the treatments, cells were lysed and 20 μg of lysates from U87 cells were blotted for phospho-EGFR, EGFR and tubulin. […] Cell medium was changed every 24 h and fresh inhibitors or DMSO was added to the medium. At the end of the treatment, cells were lysed and 20 μg of lysates from cells U87 and T98G were blotted for phospho-EGFR, EGFR and actin.\nImmunoblotting. Cells were rinsed in ice-cold phosphate-buffered saline (PBS) and collected in lysis buffer, containing 0.5% NP-40, 150 mM NaCl, 10 mM Tris-Cl (pH 7.4), 1 mM EGTA, 1 mM EDTA, 1 mM phenylmethylsulphonyl fluoride, 1 μM okadaic acid, and 10 μg/mL each of aprotinin, leupeptin, and pepstatin. Samples were sonicated on ice and centrifuged at 16,000 g for 10 min. Protein concentrations of supernatants were then determined by the bicinchoninic acid assay with bovine serum albumin (BSA) as a standard and samples were diluted to a final concentration of 1 mg/mL with 2× reducing stop buffer (0.25 M Tris-HCl, pH 6.8, 5 mM EDTA, 5 mM EGTA, 25 mM dithiothreitol, 2% SDS, 10% glycerol, and bromophenol blue as the tracking dye). […]"}, "A431 cells": {"test_system": "A431 cells", "test": "Matrigel invasion assay, A431 cells", "assay_type": "cell-based, human", "procedure": "In (A), it is shown that A431-derived ECS cells have elevated TG2 and mesenchymal markers. A431 cells (40,000 cells/well) were grown in spheroid media in monolayer conditions or as non-attached spheroids (ECS cells) for 10 d. Cells were harvested and lysates prepared for immunoblot. In (B), A431 cells were electroporated with 3 μg of control- or TG2-siRNA and at 72 h extracts were prepared to assay TG2 and EMT marker level. In (C), A431-derived ECS cells were electroporated with 3 μg of the indicated siRNA and then grown as spheroids for 96 h. […] In (D), A431 cells (500,000 cells/well) were plated in monolayer culture in spheroid media in 100 mm dishes. […] Confluent monolayers were then scratched with a 10-μL pipette tip, rinsed, and width of the wound was monitored for 0-14 h.\nIn (A), A431 cells were grown as monolayers or in ultralow attachment plates (spheroids) in spheroid medium. […] Spheroid number was counted on days 1, 2 and 3. […] Spheroid number and trypan-blue viable cell number were determined at the indicated times following NC9 addition. […] A wound was created and ability of the cells to close the wound was monitored with time. […]\nInvasion assay. […] The membrane was fixed in 4% paraformaldehyde, stained with 1 μg/m DAPI, and the underside of the membrane was photographed with an inverted fluorescent microscope and the number of cells counted."}}, "data": [{"smiles": "C=CC(=O)NCCCC[C@H](NC(=O)OCc1ccccc1)C(=O)NCCOCCOCCNS(=O)(=O)c1cccc2c(N(C)C)cccc12", "note": "[NC9]", "values": [{"measurement": "phospho-EGFR and EGFR levels, longer treatment", "setting": "EGFR; U87 and T98G cells, 10 μM, 48-72 h", "result": "decrease phospho-EGFR and EGFR levels in U87 cells, but not T98G cells"}, {"measurement": "EGFR or phospho-EGFR levels, shorter treatment", "setting": "EGFR; U87 cells, 10 μM 24 h, then 100 ng/mL EGF 10 min", "result": "did not result in a decrease"}, {"measurement": "reduction of ability of A431 ECS cells to invade Matrigel", "setting": "A431 cells; 20 μM 1 hour, 24 hours", "result": 50, "unit": "%"}, {"measurement": "matrigel invasion", "setting": "A431 cells; 20 μM pretreatment 2 h, 30 h", "result": "reduced matrigel invasion"}]}]}
